Publication PMC10693528, “A high-throughput metabolomics in vitro platform for the characterization of hepatotoxicity” (Cell Biology and Toxicology, 2023)

Columns and labels:
[1] = test system: HepG2 cells; assay: LC-MS/MS targeted intracellular metabolomics; format: cell-based, human; settings: 48 h
Summary of the method: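 Metabolites extracted in-plate from HepG2 cells with 80% isopropanol and analysed by RP and HILIC LC-MS/MS in positive and negative mode. Data normalised to lyophilised untreated HepG2 reference samples and to each sample's median across 221 metabolites. Treated versus control compared by Welch t test on log-transformed data.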

[2] = test system: HepG2 cells; assay: Cytotoxicity (CellTox Green) in parallel with metabolomics experiments; settings: intermediate concentration (C3; C2 for aroclor), 48 h
Description: Commercially available cytotoxicity (CellTox™ Green) and ATP content based (CellTiter-Glo®) assays (Promega GmbH, Walldorf, Germany) were multiplexed in a single 96-well plate following the manufacturer’s instructions. For positive controls, lysis solution 25X was added in wells containing vehicle control treated cells (0.5% DMSO). Then, 10X CellTox Green reagent was added in all wells, plates were shaken for 1 min, and incubated in the dark for 15 min at room temperature. […] Afterwards, wells were washed with PBS, 100 μL of Dulbecco’s MEM media were added to each well and subsequently 100 μL of 1X CellTiter-Glo were added. Plates were shaken for 2 min and incubated in the dark for 8 min at room temperature. Luminescence was measured in the GloMax®-Multi Detection System (Promega) and was normalized to the values of the vehicle control. Cytotoxicity and ATP cell viability analysis were carried out for range finder pre-tests and in parallel with metabolomics experiments in plates handled and treated exactly as the ones used for metabolite profiling.

[3] = Suppl Fig 10, C3 (C2 for Aroclor)
[4] = Suppl Fig 9, C3 (EC15 ATP), Bezafibrate lines = Plates 1-6 in order

CCC(CC)Nc1c([N+](=O)[O-])cc(C)c(C)c1[N+](=O)[O-] [Pendimethalin]
Carnitine level vs controls [1, 3]: 0.76 | Ceramide (d16:1.C24:0) level vs controls [1, 3]: 1.35 | Ceramide (d17:1.C24:0) level vs controls [1, 3]: 1.40 | Ceramide (d18:1.C20:0) level vs controls [1, 3]: 0.81 | Ceramide (d18:1.C22:1) level vs controls [1, 3]: 0.43 | Ceramide (d18:1.C24:1) level vs controls [1, 3]: 0.54 | Ceramide (d18:2.C16:0) level vs controls [1, 3]: 2.06 | Ceramide (d18:2.C23:0) level vs controls [1, 3]: 1.14 | Ceramide (d18:2.C24:0) level vs controls [1, 3]: 1.87 | Ceramide (d18:2.C24:1) level vs controls [1, 3]: 1.17 | Choline plasmalogen (C36:4) level vs controls [1, 3]: 0.63 | Choline plasmalogen (C36:5) level vs controls [1, 3]: 0.68 | Cysteinylglycine level vs controls [1, 3]: 1.14 | Flavin adenine dinucleotide (FAD) level vs controls [1, 3]: 1.14 | Glutathione (GSH) level vs controls [1, 3]: 1.12 | Hexanoylcarnitine level vs controls [1, 3]: 0.69 | Isopentenyl pyrophosphate (IPP) level vs controls [1, 3]: 2.79 | Lysophosphatidylcholine (C14:0) level vs controls [1, 3]: 2.28 | Lysophosphatidylcholine (C16:0) level vs controls [1, 3]: 2.37 | Lysophosphatidylcholine (C20:0) level vs controls [1, 3]: 2.37 | Lysophosphatidylcholine (C20:1) level vs controls [1, 3]: 1.47 | Lysophosphatidylcholine (C20:4) level vs controls [1, 3]: 2.32 | Lysophosphatidylcholine (C22:0) level vs controls [1, 3]: 3.44 | Lysophosphatidylcholine (C24:0) level vs controls [1, 3]: 4.49 | Lysophosphatidylcholine (C24:1) level vs controls [1, 3]: 3.59 | Lysophosphatidylethanolamine (C16:0) level vs controls [1, 3]: 1.81 | Lysophosphatidylethanolamine (C18:0) level vs controls [1, 3]: 2.07 | N-Acetylglucosamine level vs controls [1, 3]: 0.93 | N-Acetylserine level vs controls [1, 3]: 1.47 | O-Acetylcarnitine level vs controls [1, 3]: 1.02 | Pantothenic acid level vs controls [1, 3]: 0.78 | Phosphatidylcholine (C32:0) level vs controls [1, 3]: 1.93 | Phosphatidylcholine (C34:0) level vs controls [1, 3]: 1.83 | Phosphatidylcholine (C34:2) level vs controls [1, 3]: 0.64 | Phosphatidylcholine (C34:3) level vs controls [1, 3]: 0.79 | Phosphatidylcholine (C36:0) level vs controls [1, 3]: 2.49 | Phosphatidylcholine (C36:1) level vs controls [1, 3]: 0.93 | Phosphatidylcholine (C36:2) level vs controls [1, 3]: 0.52 | Phosphatidylcholine (C36:3) level vs controls [1, 3]: 0.73 | Phosphatidylcholine (C36:4) level vs controls [1, 3]: 1.10 | Phosphatidylcholine (C38:6) level vs controls [1, 3]: 1.15 | Phosphatidylethanolamine (C32:0) level vs controls [1, 3]: 3.04 | Phosphatidylethanolamine (C34:0) level vs controls [1, 3]: 2.78 | Phosphatidylethanolamine (C34:1) level vs controls [1, 3]: 1.48 | Phosphatidylethanolamine (C34:2) level vs controls [1, 3]: 0.68 | Phosphatidylethanolamine (C36:0) level vs controls [1, 3]: 3.98 | Phosphatidylethanolamine (C36:1) level vs controls [1, 3]: 1.46 | Phosphatidylethanolamine (C36:3) level vs controls [1, 3]: 0.82 | Phosphatidylethanolamine (C38:5) level vs controls [1, 3]: 0.79 | Phosphatidylethanolamine (C40:7) level vs controls [1, 3]: 0.57 | Proline level vs controls [1, 3]: 0.89 | Propionylcarnitine level vs controls [1, 3]: 0.65 | Sphingomyelin (d32:1) level vs controls [1, 3]: 0.92 | Sphingomyelin (d35:1) level vs controls [1, 3]: 1.07 | Sphingomyelin (d38:2) level vs controls [1, 3]: 0.76 | Sphingomyelin (d40:2) level vs controls [1, 3]: 0.93 | Sphingomyelin (d41:2) level vs controls [1, 3]: 0.79 | Sphingomyelin (d42:2) level vs controls [1, 3]: 0.73 | Triacylglycerol (C30:0.C18:1) level vs controls [1, 3]: 0.81 | Triacylglycerol (C32:0.C16:1) level vs controls [1, 3]: 0.66 | Triacylglycerol (C32:1.C16:1) level vs controls [1, 3]: 0.58 | Triacylglycerol (C34:0.C18:1) level vs controls [1, 3]: 0.96 | Triacylglycerol (C34:1.C16:0) level vs controls [1, 3]: 0.79 | Triacylglycerol (C34:1.C18:1) level vs controls [1, 3]: 0.71 | Triacylglycerol (C34:2.C18:0) level vs controls [1, 3]: 0.87 | Triacylglycerol (C34:2.C18:1) level vs controls [1, 3]: 0.44 | Triacylglycerol (C36:1.C18:0) level vs controls [1, 3]: 0.86 | Triacylglycerol (C36:1.C18:1) level vs controls [1, 3]: 0.65 | Triacylglycerol (C36:1.C18:2) level vs controls [1, 3]: 0.83 | Triacylglycerol (C36:2.C18:1) level vs controls [1, 3]: 0.49 | Triacylglycerol (C36:3.C18:1) level vs controls [1, 3]: 0.78 | Tyrosine level vs controls [1, 3]: 1.14 | myo-Inositol-2-phosphate level vs controls [1, 3]: 0.76 | Sphingomyelin (d34:2) level vs controls ([1]; Suppl Fig 10, C3 (C2 for Aroclor), first of two lines with this name): 1.11 | Sphingomyelin (d34:2) level vs controls ([1]; Suppl Fig 10, C3 (C2 for Aroclor), second of two lines with this name): 1.27 | cytotoxicity (CellTox Green) [2]: low cytotoxicity

Cc1cccc(Nc2cc(Cl)nc(SCC(=O)O)n2)c1C [Wy-14643]
2'-Deoxycytidine level vs controls [1, 4]: 0.75 | 5-Hydroxytryptophan level vs controls [1, 4]: 0.85 | Carnitine level vs controls [1, 4]: 0.99 | Ceramide (d18:1.C20:0) level vs controls [1, 4]: 0.66 | Ceramide (d18:1.C24:1) level vs controls [1, 4]: 0.92 | Ceramide (d18:1.C24:2) level vs controls [1, 4]: 0.71 | Ceramide (d18:2.C24:1) level vs controls [1, 4]: 0.97 | Choline plasmalogen (C36:4) level vs controls [1, 4]: 1.00 | Choline plasmalogen (C36:5) level vs controls [1, 4]: 1.03 | Creatine level vs controls [1, 4]: 0.85 | Glycerol-3-phosphate level vs controls [1, 4]: 0.72 | Hexanoylcarnitine level vs controls [1, 4]: 0.93 | Ketoleucine level vs controls [1, 4]: 0.86 | Lysophosphatidylcholine (C14:0) level vs controls [1, 4]: 1.51 | Lysophosphatidylcholine (C16:0) level vs controls [1, 4]: 1.26 | Lysophosphatidylcholine (C16:1) level vs controls [1, 4]: 1.06 | Lysophosphatidylcholine (C20:4) level vs controls [1, 4]: 1.28 | Lysophosphatidylcholine (C24:0) level vs controls [1, 4]: 1.50 | Lysophosphatidylcholine (C24:1) level vs controls [1, 4]: 1.20 | Lysophosphatidylethanolamine (C16:0) level vs controls [1, 4]: 1.18 | Lysophosphatidylethanolamine (C18:0) level vs controls [1, 4]: 1.26 | Lysophosphatidylethanolamine (C18:1) level vs controls [1, 4]: 1.12 | N-Acetylaspartate level vs controls [1, 4]: 1.22 | Pantothenic acid level vs controls [1, 4]: 0.74 | Phosphatidylcholine (C32:0) level vs controls [1, 4]: 0.81 | Phosphatidylcholine (C34:1) level vs controls [1, 4]: 0.91 | Phosphatidylcholine (C34:3) level vs controls [1, 4]: 1.04 | Phosphatidylcholine (C36:1) level vs controls [1, 4]: 0.96 | Phosphatidylcholine (C36:2) level vs controls [1, 4]: 0.86 | Phosphatidylcholine (C36:3) level vs controls [1, 4]: 0.93 | Phosphatidylcholine (C36:4) level vs controls [1, 4]: 0.98 | Phosphatidylcholine (C36:5) level vs controls [1, 4]: 0.92 | Phosphatidylethanolamine (C36:3) level vs controls [1, 4]: 0.82 | Phosphatidylethanolamine (C38:3) level vs controls [1, 4]: 0.92 | Phosphatidylethanolamine (C38:5) level vs controls [1, 4]: 0.89 | Phosphatidylethanolamine (C38:6) level vs controls [1, 4]: 0.96 | Phosphatidylethanolamine (C40:7) level vs controls [1, 4]: 0.92 | Phosphocholine level vs controls [1, 4]: 0.91 | Propionylcarnitine level vs controls [1, 4]: 0.97 | S-Adenosylhomocysteine level vs controls [1, 4]: 1.03 | Sphingomyelin (d32:2) level vs controls [1, 4]: 0.79 | Sphingomyelin (d33:1) level vs controls [1, 4]: 1.13 | Sphingomyelin (d34:0) level vs controls [1, 4]: 1.04 | Sphingomyelin (d35:1) level vs controls [1, 4]: 0.99 | Sphingomyelin (d36:1) level vs controls [1, 4]: 0.90 | Sphingomyelin (d36:2) level vs controls [1, 4]: 0.97 | Sphingomyelin (d37:1) level vs controls [1, 4]: 0.81 | Sphingomyelin (d38:1) level vs controls [1, 4]: 0.84 | Sphingomyelin (d38:2) level vs controls [1, 4]: 0.74 | Sphingomyelin (d39:1) level vs controls [1, 4]: 0.94 | Sphingomyelin (d40:2) level vs controls [1, 4]: 0.81 | Sphingomyelin (d41:2) level vs controls [1, 4]: 0.79 | Sphingomyelin (d42:2) level vs controls [1, 4]: 0.79 | Taurine level vs controls [1, 4]: 0.97 | Triacylglycerol (C34:1.C18:3) level vs controls [1, 4]: 1.01 | Triacylglycerol (C34:2.C18:0) level vs controls [1, 4]: 1.14 | Triacylglycerol (C34:2.C18:1) level vs controls [1, 4]: 1.01 | Triacylglycerol (C36:4.C16:0) level vs controls [1, 4]: 1.09 | Triacylglycerol (C36:4.C18:0) level vs controls [1, 4]: 1.18 | cytotoxicity (CellTox Green) [2]: low cytotoxicity
